Assays:
[1] = test system: serotonin release in the dorsal raphe nucleus; conditions: rat; combined with paroxetine; cited from earlier work
[2] = test system: serotonin release in the cortex; conditions: after systemic administration; cited from earlier work

SMILES	melting point	effect of paroxetine on serotonin release in the dorsal raphe nucleus [1]	serotonin release in the cortex [2]
CCOC(=O)N1Cc2sc3ncn(CCN4CCN(c5ncccn5)CC4)c(=O)c3c2C1	166 °C	–	–
CCOC(=O)N1Cc2sc3ncn(CCN4CCN(c5ccccc5C)CC4)c(=O)c3c2C1	152 °C	–	–
CCOC(=O)N1Cc2sc3ncn(CCN4CCN(c5ccccc5Cl)CC4)c(=O)c3c2C1	172 °C	–	–
CCOC(=O)N1Cc2sc3ncn(CCCN4CCN(c5ccccc5C#N)CC4)c(=O)c3c2C1	190 °C	–	–
CCOC(=O)N1Cc2sc3ncn(CCN4CCN(c5cccc6c5CCC6)CC4)c(=O)c3c2C1	149 °C	–	–
CCOC(=O)N1Cc2sc3ncn(CCN4CCN(c5cccc6ccccc56)CC4)c(=O)c3c2C1	190 to 192 °C	–	–
COc1ccc(NC(=O)c2ccc(-c3ccc(-c4noc(C)n4)cc3C)cc2)cc1N1CCN(C)CC1 [GR 127 935]	–	potentiated	reduces serotonin release
